From EP0434173A2, “Use of NMDA receptor antagonists for treatment of chronic neurodegenerative diseases” (SCHERING AKTIENGESELLSCHAFT, priority 1989, dated 1991)

Tested on: Dopaminneurone der SNC
Assay: Prevention of MPP^+-induced degeneration of dopamine neurons after local co-injection into the substantia nigra pars compacta; count of intact neurons in cresyl violet stained brain sections
Format: in vivo, Ratten
Conditions: for Anzahl intakter Neurone (Mittelwert ± S.E.M.): right SNC
Text: Zum Nachweis der protectiven Wirkung der erfindungsgemäßen Verbindungen wurde der toxische Metabolit MPP^+ lokal in die Substantia nigra von Ratten injiziert und somit eine rasch fortschreitende Degeneration der Dopaminneuronen bewirkt.

## NC(CCCCCP(=O)(O)O)C(=O)O (stereo not drawn) [AP-7, 2-Amino-7-phosphonoheptansäure]
AP-7 0.025 µmol co-injected with MPP^+ (0.025 µmol pro Seite), 4 h after injection, n=3
  Anzahl intakter Neurone (Mittelwert ± S.E.M.): 26 ± 2
AP-7 0.1 µmol co-injected with MPP^+ (0.025 µmol pro Seite), 4 h after injection, n=4
  Anzahl intakter Neurone (Mittelwert ± S.E.M.): 91 ± 24 x
AP-7 0.25 µmol co-injected with MPP^+ (0.025 µmol pro Seite), 4 h after injection, n=9
  Anzahl intakter Neurone (Mittelwert ± S.E.M.): 128 ± 10 xxx
AP-7 0.25 µmol co-injected with MPP^+ (0.025 µmol pro Seite), 8 h after injection, n=4
  Anzahl intakter Neurone (Mittelwert ± S.E.M.): 79 ± 9 xx
AP-7 0.25 µmol co-injected with MPP^+ (0.025 µmol pro Seite), 24 h after injection, n=4
  Anzahl intakter Neurone (Mittelwert ± S.E.M.): 66 ± 16 x
Simultaneous local administration with MPP^+ into the substantia nigra of rats, result in words
  neurodegenerativer Effekt von MPP^+ auf die Dopaminneuronen: nahezu vollständig auf
